# Data taken from US20240383886A1, “Protein Tyrosine Phosphatase Degraders and Methods of Use Thereof” (CALICO LIFE SCIENCES LLC, priority 2019, published 2024).
# Assays:
# PTPN2 [1] = target: T1, PTPN2 (Homo sapiens, UniProt P17706); test: HiBiT-Degradation 293T.109 PTPN2 (Nano-Glo HiBiT Lytic Assay); assay type: cell-based; details: 293T.109 (HiBiT-PTPN2) cells, 24.0 hours
# T1 construct: expressed in transfected cells; host or cells: 293T (293T.109 HiBiT-PTPN2 line; parental 293T WT from ATCC)
# T1 sequence (P17706 1-415): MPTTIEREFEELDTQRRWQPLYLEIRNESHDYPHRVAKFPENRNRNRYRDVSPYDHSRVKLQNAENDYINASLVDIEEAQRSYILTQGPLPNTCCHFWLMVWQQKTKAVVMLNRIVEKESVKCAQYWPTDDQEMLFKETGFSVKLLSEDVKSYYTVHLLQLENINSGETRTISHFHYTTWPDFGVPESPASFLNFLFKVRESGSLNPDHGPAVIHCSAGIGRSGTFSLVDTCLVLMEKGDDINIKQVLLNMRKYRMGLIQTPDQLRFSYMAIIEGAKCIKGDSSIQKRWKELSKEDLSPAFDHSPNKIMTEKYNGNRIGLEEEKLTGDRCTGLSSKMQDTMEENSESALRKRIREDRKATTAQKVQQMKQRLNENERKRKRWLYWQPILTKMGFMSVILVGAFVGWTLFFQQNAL
# Method in brief: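 Luminescence from a lytic HiBiT read gave PTPN2 levels after 24 h compound exposure at 37° C. Compounds were tested at 11 half-log points from a 10 μM top concentration, in duplicate. The cells were 293T engineered with an N-terminal HiBiT–PTPN2 fusion, plated at 5000 per well, with untreated wells as negative control and no-reagent wells as positive control.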
# PTPN2 [2] = test: HiBiT-Degradation B16F10.4 PTPN2; assay type: cell-based; details: B16F10.4 cells, 24.0 hours
DC50 (PTPN2 [1]) [nM],DC50 (PTPN2 [2]) [nM],Structure (SMILES)
10 to 50,10 to 50,"Cc1cc(CC(=O)Nc2ccc3c(F)c(N4CC(=O)NS4(=O)=O)c(O)cc3c2)ccc1Nc1ccc2c(c1)n(C)c(=O)n2C1CCC(=O)NC1=O (centres unmarked) [Example 169, N-(6-(1,1-dioxido-4-oxo-1,2,5-thiadiazolidin-2-yl)-5-fluoro-7-hydroxynaphthalen-2-yl)-2-(4-((1-(2,6-dioxopiperidin-3-yl)-3-methyl-2-oxo-2,3-dihydro-1H-benzo[d]imidazol-5-yl)amino)-3-methylphenyl)acetamide]"
50 to 200,50 to 200,"Cn1c(=O)n(C2CCC(=O)NC2=O)c2ccc(C3CCN(CC(=O)N4CC(Nc5ccc6cc(O)c(N7CC(=O)NS7(=O)=O)c(F)c6c5)C4)CC3(F)F)cc21 (centres unmarked) [Example 171, 3-(5-(1-(2-(3-((7-(1,1-dioxido-4-oxo-1,2,5-thiadiazolidin-2-yl)-8-fluoro-6-hydroxynaphthalen-2-yl)amino)azetidin-1-yl)-2-oxoethyl)-3,3-difluoropiperidin-4-yl)-3-methyl-2-oxo-2,3-dihydro-1H-benzo[d]imidazol-1-yl)piperidine-2,6-dione]"
10 to 50,10 to 50,"Cn1c(=O)n(C2CCC(=O)NC2=O)c2ccc(-c3cnn(CC(=O)Nc4ccc5c(F)c(N6CC(=O)NS6(=O)=O)c(O)cc5c4)c3)cc21 (centres unmarked) [Example 172, 2-[4-[1-(2,6-dioxo-3-piperidyl)-3-methyl-2-oxo-benzimidazol-5-yl]pyrazol-1-yl]-N-[5-fluoro-7-hydroxy-6-(1,1,4-trioxo-1,2,5-thiadiazolidin-2-yl)-2-naphthyl]acetamide]"
10 to 50,50 to 200,"Cn1c(=O)n(C2CCC(=O)NC2=O)c2ccc(-c3ccc(CC(=O)Nc4ccc5c(F)c(N6CC(=O)NS6(=O)=O)c(O)cc5c4)nc3)cc21 (centres unmarked) [Example 175, N-(6-(1,1-dioxido-4-oxo-1,2,5-thiadiazolidin-2-yl)-5-fluoro-7-hydroxynaphthalen-2-yl)-2-(5-(1-(2,6-dioxopiperidin-3-yl)-3-methyl-2-oxo-2,3-dihydro-1H-benzo[d]imidazol-5-yl)pyridin-2-yl)acetamide]"
10 to 50,50 to 200,"Cn1c(=O)n(C2CCC(=O)NC2=O)c2ccc(C3CCN(CC4CC4C(=O)Nc4ccc5c(F)c(N6CC(=O)NS6(=O)=O)c(O)cc5c4)CC3)cc21 (centres unmarked) [Example 176, N-(6-(1,1-dioxido-4-oxo-1,2,5-thiadiazolidin-2-yl)-5-fluoro-7-hydroxynaphthalen-2-yl)-2-((4-(1-(2,6-dioxopiperidin-3-yl)-3-methyl-2-oxo-2,3-dihydro-1H-benzo[d]imidazol-5-yl)piperidin-1-yl)methyl)cyclopropane-1-carboxamide]"
10 to 50,50 to 200,"Cn1nc(C2CCC(=O)NC2=O)c2ccc(-c3ccc(CC(=O)Nc4ccc5c(F)c(N6CC(=O)NS6(=O)=O)c(O)cc5c4)cc3)cc21 (centres unmarked) [Example 177, N-(6-(1,1-dioxido-4-oxo-1,2,5-thiadiazolidin-2-yl)-5-fluoro-7-hydroxynaphthalen-2-yl)-2-(4-(3-(2,6-dioxopiperidin-3-yl)-1-methyl-1H-indazol-6-yl)phenyl)acetamide]"
10 to 50,50 to 200,"Cn1nc(C2CCC(=O)NC2=O)c2ccc([C@H]3CC[C@@H](CC(=O)Nc4ccc5c(F)c(N6CC(=O)NS6(=O)=O)c(O)cc5c4)CC3)cc21 (stereo partly drawn) [Example 180, N-(6-(1,1-dioxido-4-oxo-1,2,5-thiadiazolidin-2-yl)-5-fluoro-7-hydroxynaphthalen-2-yl)-2-((cis)-4-(3-(2,6-dioxopiperidin-3-yl)-1-methyl-1H-indazol-6-yl)cyclohexyl)acetamide]"
10 to 50,50 to 200,Cn1c(=O)n(C2CCC(=O)NC2=O)c2ccc(N3CCC(CCNC(=O)Nc4ccc5c(F)c(N6CC(=O)NS6(=O)=O)c(O)cc5c4)CC3)cc21 (centres unmarked) [Example 181]

# Further lines, the compound ahead of its results:
Structure (SMILES),DC50 (PTPN2 [1]) [nM],DC50 (PTPN2 [2]) [nM]
"Cn1c(=O)n(C2CCC(=O)NC2=O)c2ccc(C3CCN(CCC(=O)Nc4ccc5c(F)c(N6CC(=O)NS6(=O)=O)c(O)cc5c4)CC3)cc21 (centres unmarked) [Example 170, N-(6-(1,1-dioxido-4-oxo-1,2,5-thiadiazolidin-2-yl)-5-fluoro-7-hydroxynaphthalen-2-yl)-3-(4-(1-(2,6-dioxopiperidin-3-yl)-3-methyl-2-oxo-2,3-dihydro-1H-benzo[d]imidazol-5-yl)piperidin-1-yl)propanamide]",10 to 50,50 to 200
"Cn1c(=O)n(C2CCC(=O)NC2=O)c2ccc(-c3cnn(CCC(=O)Nc4ccc5c(F)c(N6CC(=O)NS6(=O)=O)c(O)cc5c4)c3)cc21 (centres unmarked) [Example 173, N-(6-(1,1-dioxido-4-oxo-1,2,5-thiadiazolidin-2-yl)-5-fluoro-7-hydroxynaphthalen-2-yl)-3-(4-(1-(2,6-dioxopiperidin-3-yl)-3-methyl-2-oxo-2,3-dihydro-1H-benzo[d]imidazol-5-yl)-1H-pyrazol-1-yl)propanamide]",10 to 50,50 to 200
"CCn1c(=O)n(C2CCC(=O)NC2=O)c2ccc(C3CCN(CC(=O)Nc4ccc5c(F)c(N6CC(=O)NS6(=O)=O)c(O)cc5c4)CC3)cc21 (centres unmarked) [Example 174, N-(6-(1,1-dioxido-4-oxo-1,2,5-thiadiazolidin-2-yl)-5-fluoro-7-hydroxynaphthalen-2-yl)-2-(4-(1-(2,6-dioxopiperidin-3-yl)-3-ethyl-2-oxo-2,3-dihydro-1H-benzo[d]imidazol-5-yl)piperidin-1-yl)acetamide]",10 to 50,50 to 200
"C[C@@H]1CC(c2ccc3c(c2)n(C)c(=O)n3C2CCC(=O)NC2=O)CCN1CC(=O)Nc1ccc2c(F)c(N3CC(=O)NS3(=O)=O)c(O)cc2c1 (stereo partly drawn) [Example 178, N-(6-(1,1-dioxido-4-oxo-1,2,5-thiadiazolidin-2-yl)-5-fluoro-7-hydroxynaphthalen-2-yl)-2-((2R)-4-(1-(2,6-dioxopiperidin-3-yl)-3-methyl-2-oxo-2,3-dihydro-1H-benzo[d]imidazol-5-yl)-2-methylpiperidin-1-yl)acetamide]",10 to 50,50 to 200
"Cn1c(=O)n(C2CCC(=O)NC2=O)c2ccc(C3CCN(CC(=O)Nc4ccc5c(F)c(N6CC(=O)NS6(=O)=O)c(O)cc5c4)CC3F)cc21 (centres unmarked) [Example 182, 2-[4-[1-(2,6-dioxo-3-piperidyl)-3-methyl-2-oxo-benzimidazol-5-yl]-3-fluoro-1-piperidyl]-N-[5-fluoro-7-hydroxy-6-(1,1,4-trioxo-1,2,5-thiadiazolidin-2-yl)-2-naphthyl]acetamide]",10 to 50,10 to 50
"Cn1c(=O)n(C2CCC(=O)NC2=O)c2ccc(C3CCN([C@H](CO)C(=O)Nc4ccc5c(F)c(N6CC(=O)NS6(=O)=O)c(O)cc5c4)CC3)cc21 (stereo partly drawn) [Example 183, (2R)—N-(6-(1,1-dioxido-4-oxo-1,2,5-thiadiazolidin-2-yl)-5-fluoro-7-hydroxynaphthalen-2-yl)-2-(4-(1-(2,6-dioxopiperidin-3-yl)-3-methyl-2-oxo-2,3-dihydro-1H-benzo[d]imidazol-5-yl)piperidin-1-yl)-3-hydroxypropanamide]",10 to 50,10 to 50
"Cn1c(=O)n(C2CCC(=O)NC2=O)c2ccc(C3CCN([C@@H](CO)C(=O)Nc4ccc5c(F)c(N6CC(=O)NS6(=O)=O)c(O)cc5c4)CC3)cc21 (stereo partly drawn) [Example 184, (2S)—N-(6-(1,1-dioxido-4-oxo-1,2,5-thiadiazolidin-2-yl)-5-fluoro-7-hydroxynaphthalen-2-yl)-2-(4-(1-(2,6-dioxopiperidin-3-yl)-3-methyl-2-oxo-2,3-dihydro-1H-benzo[d]imidazol-5-yl)piperidin-1-yl)-3-hydroxypropanamide]",10 to 50,50 to 200
"Cc1cc(CC(=O)Nc2ccc3c(F)c(N4CC(=O)NS4(=O)=O)c(O)cc3c2)ccc1Nc1ccc2c(C3CCC(=O)NC3=O)nn(C)c2c1 (centres unmarked) [Example 185, N-(6-(1,1-dioxido-4-oxo-1,2,5-thiadiazolidin-2-yl)-5-fluoro-7-hydroxynaphthalen-2-yl)-2-(4-((3-(2,6-dioxopiperidin-3-yl)-1-methyl-1H-indazol-6-yl)amino)-3-methylphenyl)acetamide]",10 to 50,50 to 200
